Data reported in patent publication EP0677522A1, “8-METHOXYQUINOLONECARBOXYLIC ACID DERIVATIVE” (priority 1992, dated 1994).
≈ marks a conversion by molar mass, not a printed value.

Experiments:
Test in all cases: In vitro antibacterial activity (MIC), Japan Society of Chemotherapy Standard
Type in all cases: cell-based
[1] = test system: E. faecium EFMY-28; settings: Enterococcus faecium, EFMY28; inoculated cells 10⁶ cells/ml
Experimental: (§1) The in vitro antibacterial activity (minimum inhibitory concentration, MIC, µg/ml) of the test compounds was determined according to Japan Society of Chemotherapy Standard [Chemotherapy, vol. 29, pp 76-79 (1981)].
(§2) Inoculated cells were 10⁶ cells/ml and the strain with * was incubated in a medium supplemented with 10% horse blood. The mark "1)" means quinolone resistant MRSA and "2)" means quinolone resistant bacteria.

[2] = test system: M.catarrhalis ATCC 25238; settings: Moraxella catarrhalis, ATCC25238; inoculated cells 10⁶ cells/ml; medium supplemented with 10% horse blood
Experimental: as §1, §2

[3] = test system: Streptococcus pyogenes C-203; settings: C203, inoculated cells 10⁶ cells/ml, medium supplemented with 10% horse blood
Experimental: as §1, §2

[4] = test system: Proteus vulgaris IFO 3988; settings: IFO3988, inoculated cells 10⁶ cells/ml
Experimental: as §1, §2

[5] = test system: Enterococcus faecalis LS-101; settings: LS101, inoculated cells 10⁶ cells/ml
Experimental: as §1, §2

[6] = test system: Serratia marcescens IFO 12648; settings: IFO12648, inoculated cells 10⁶ cells/ml
Experimental: as §1, §2

[7] = test system: P. mirabilis IFO 3849; settings: Proteus mirabilis, IFO3849; inoculated cells 10⁶ cells/ml
Experimental: as §1, §2

[8] = test system: L.monocytogenes VTU-206; settings: Listeria monocytogenes, VTU206; inoculated cells 10⁶ cells/ml; medium supplemented with 10% horse blood
Experimental: as §1, §2

[9] = test system: S. pneumoniae Type-III; settings: Streptococcus pneumoniae; inoculated cells 10⁶ cells/ml; medium supplemented with 10% horse blood
Experimental: as §1, §2

[10] = test system: Staphylococcus aureus FDA 209P; settings: FDA209P, inoculated cells 10⁶ cells/ml
Experimental: as §1, §2

[11] = test system: P.aeruginosa U-31; settings: Pseudomonas aeruginosa, U31; inoculated cells 10⁶ cells/ml
Experimental: as §1, §2

[12] = test system: Escherichia coli NIHJ JC-2; settings: NIHJJC2, inoculated cells 10⁶ cells/ml
Experimental: as §1, §2

[13] = test system: E. avium EAY-30; settings: Enterococcus avium, EAY30, inoculated cells 10⁶ cells/ml
Experimental: as §1, §2

[14] = test system: K.pneumoniae DT-S; settings: Klebsiella pneumoniae; inoculated cells 10⁶ cells/ml
Experimental: as §1, §2

[15] = test system: Enterobacter cloacae IFO 12937; settings: IFO12937, inoculated cells 10⁶ cells/ml
Experimental: as §1, §2

[16] = test system: S. epidermidis ATCC 12228; settings: Staphylococcus epidermidis, ATCC12228; inoculated cells 10⁶ cells/ml
Experimental: as §1, §2

[17] = test system: Citrobacter freundii IFO 12681; settings: IFO12681, inoculated cells 10⁶ cells/ml
Experimental: as §1, §2

[18] = test system: A.calcoaceticus IFO 13006; settings: Acinetobacter calcoaceticus, IFO13006; inoculated cells 10⁶ cells/ml
Experimental: as §1, §2

[19] = test system: Shigella flexneri EW-10; settings: EW10, inoculated cells 10⁶ cells/ml
Experimental: as §1, §2

[20] = test system: S. aureus No.88; settings: Staphylococcus aureus; quinolone resistant MRSA; inoculated cells 10⁶ cells/ml
Experimental: as §1, §2

Row | Compound | MIC [1] | MIC [2] | MIC [3] | MIC [4] | MIC [5] | MIC [6] | MIC [7] | MIC [8] | MIC [9] | MIC [10] | MIC [11] | MIC [12] | MIC [13] | MIC [14] | MIC [15] | MIC [16] | MIC [17] | MIC [18] | MIC [19] | MIC [20]
1 | COc1c(N2CCC(N)(CF)C2)c(F)cc2c(=O)c(C(=O)O)cn(C3CC3)c12 (stereo not shown) [Example 1, 7-(3-amino-3-fluoromethylpyrrolidin-1-yl)-1-cyclopropyl-6-fluoro-1,4-dihydro-8-methoxy-4-oxo-3-quinolinecarboxylic acid] | 0.2 µg/mL (≈ 0.508 µM) | 0.012 µg/mL (≈ 0.0305 µM) | 0.05 µg/mL (≈ 0.127 µM) | 0.2 µg/mL (≈ 0.508 µM) | 0.012 µg/mL (≈ 0.0305 µM) | 0.2 µg/mL (≈ 0.508 µM) | 0.39 µg/mL (≈ 0.991 µM) | 0.1 µg/mL (≈ 0.254 µM) | 0.012 µg/mL (≈ 0.0305 µM) | ≤ 0.006 µg/mL | 0.39 µg/mL (≈ 0.991 µM) | 0.025 µg/mL (≈ 0.0636 µM) | 0.1 µg/mL (≈ 0.254 µM) | 0.025 µg/mL (≈ 0.0636 µM) | 0.2 µg/mL (≈ 0.508 µM) | 0.012 µg/mL (≈ 0.0305 µM) | 0.05 µg/mL (≈ 0.127 µM) | 0.05 µg/mL (≈ 0.127 µM) | ≤ 0.006 µg/mL | 0.39 µg/mL (≈ 0.991 µM)
2 | COc1c(N2CCC(N)(CN)CC2)c(F)cc2c(=O)c(C(=O)O)cn(C3CC3)c12 [Comp. Ex. 1, 7-(4-amino-4-aminomethylpiperidin-1-yl)-1-cyclopropyl-6-fluoro-1,4-dihydro-8-methoxy-4-oxo-3-quinolinecarboxylic acid, reference compound] | – | – | – | 25 µg/mL (≈ 61.8 µM) | 1.56 µg/mL (≈ 3.86 µM) | 6.25 µg/mL (≈ 15.5 µM) | 25 µg/mL (≈ 61.8 µM) | – | – | 0.1 µg/mL (≈ 0.247 µM) | 12.5 µg/mL (≈ 30.9 µM) | 1.56 µg/mL (≈ 3.86 µM) | – | 6.25 µg/mL (≈ 15.5 µM) | 12.5 µg/mL (≈ 30.9 µM) | 0.78 µg/mL (≈ 1.93 µM) | – | – | 0.39 µg/mL (≈ 0.964 µM) | –
